Source: patent publication US11180462B2, “Microbiocidal oxadiazole derivatives” (SYNGENTA PARTICIPATIONS AG, priority 2015, dated 2021)

tested on: Glomerella lagenarium (Colletotrichum lagenarium); assay: Fungicidal activity against Glomerella lagenarium (Colletotrichum lagenarium) liquid culture / cucumber / preventative (anthracnose); format: cell-based; conditions: Colletotrichum orbiculare; 20 ppm in the applied formulation; liquid culture (PDB), growth inhibition measured photometrically after 3 to 4 days; compared to untreated control; read-out: disease control
Procedure, shortened: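 Percent activity against the untreated check was derived from photometric growth measurements made 2 to 7 days after conidia in potato dextrose broth were combined with compound at 20 ppm. Cultures were kept dark at 24 °C and 96% humidity.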

Compound | inhibition of growth at 20 ppm [%]
CON(Cc1ccc(-c2noc(C(F)(F)F)n2)cc1)C(=O)OCC(C)(C)C [Compound 2.18, 2,2-dimethylpropyl N-methoxy-N-[[4-[5-(trifluoromethyl)-1,2,4-oxadiazol-3-yl]phenyl]methyl]-carbamate] | ≥ 80
C=CCCC(=O)N(Cc1ccc(-c2noc(C(F)(F)F)n2)cc1)CC1CC1 [Compound 1.208, N-(cyclopropylmethyl)-N-[[4-[5-(trifluoromethyl)-1,2,4-oxadiazol-3-yl]phenyl]methyl]-pent-4-enamide] | ≥ 80
CCCON(Cc1ccc(-c2noc(C(F)(F)F)n2)cc1)C(=O)CC(F)(F)F [Compound 1.318, 3,3,3-trifluoro-N-propoxy-N-[[4-[5-(trifluoromethyl)-1,2,4-oxadiazol-3-yl]phenyl]methyl]-propanamide] | ≥ 80
COCC(=O)N(Cc1ccc(-c2noc(C(F)(F)F)n2)cc1)OCC=C(Cl)Cl [Compound 1.535, N-(3,3-dichloroallyloxy)-2-methoxy-N-[[4-[5-(trifluoromethyl)-1,2,4-oxadiazol-3-yl]phenyl]methyl]-acetamide] | ≥ 80
O=C(C1CC1F)N(Cc1ccc(-c2noc(C(F)(F)F)n2)cc1)OCC=C(Cl)Cl (stereo not drawn) [Compound 1.545, N-(3,3-dichloroallyloxy)-2-fluoro-N-[[4-[5-(trifluoromethyl)-1,2,4-oxadiazol-3-yl]phenyl]methyl]-cyclopropane-carboxamide] | ≥ 80
CCC(COC)C(=O)N(Cc1ccc(-c2noc(C(F)(F)F)n2)cc1)C(C)CC (stereo not drawn) [Compound 1.397, 2-(methoxymethyl)-N-sec-butyl-N-[[4-[5-(trifluoromethyl)-1,2,4-oxadiazol-3-yl]phenyl]methyl]-butanamide] | ≥ 80
CCC(=O)N(Cc1ccc(-c2noc(C(F)(F)F)n2)cc1)OCC=C(Cl)Cl [Compound 1.534, N-(3,3-dichloroallyloxy)-N-[[4-[5-(trifluoromethyl)-1,2,4-oxadiazol-3-yl]phenyl]methyl]-propanamide] | ≥ 80
CCCON(Cc1ccc(-c2noc(C(F)(F)F)n2)cc1)C(=O)CCCOC [Compound 1.321, 4-methoxy-N-propoxy-N-[[4-[5-(trifluoromethyl)-1,2,4-oxadiazol-3-yl]phenyl]methyl]-butanamide] | ≥ 80
CC1CC1C(=O)N(Cc1ccc(-c2noc(C(F)(F)F)n2)cc1)OCC=C(Cl)Cl (stereo not drawn) [Compound 1.536, N-(3,3-dichloroallyloxy)-2-methyl-N-[[4-[5-(trifluoromethyl)-1,2,4-oxadiazol-3-yl]phenyl]methyl]-cyclopropane-carboxamide] | ≥ 80
O=C(C1CCCO1)N(Cc1ccc(-c2noc(C(F)(F)F)n2)cc1)OCc1ccc(Cl)cc1 (stereo not drawn) [Compound 1.557, N-[(4-chlorophenyl)-methoxy]-N-[[4-[5-(trifluoromethyl)-1,2,4-oxadiazol-3-yl]phenyl]methyl]-tetrahydrofuran-2-carboxamide] | ≥ 80
CCCON(Cc1ccc(-c2noc(C(F)(F)F)n2)cc1)C(=O)C(C)C [Compound 1.284, 2-methyl-N-propoxy-N-[[4-[5-(trifluoromethyl)-1,2,4-oxadiazol-3-yl]phenyl]methyl]-propanamide] | ≥ 80
CCCCOC(=O)N(Cc1ccc(-c2noc(C(F)(F)F)n2)cc1)OC [Compound 2.12, butyl N-methoxy-N-[[4-[5-(trifluoromethyl)-1,2,4-oxadiazol-3-yl]phenyl]methyl]-carbamate] | ≥ 80
COc1ccccc1C(=O)N(Cc1ccc(-c2noc(C(F)(F)F)n2)cc1)OC [Compound 1.7, N,2-dimethoxy-N-[[4-[5-(trifluoromethyl)-1,2,4-oxadiazol-3-yl]phenyl]methyl]-benzamide] | ≥ 80
COc1cccc(C2(C(=O)N(Cc3ccc(-c4noc(C(F)(F)F)n4)cc3)OC)CC2)c1 [Compound 1.72, N-methoxy-1-(3-methoxyphenyl)-N-[[4-[5-(trifluoromethyl)-1,2,4-oxadiazol-3-yl]phenyl]methyl]-cyclopropane-carboxamide] | ≥ 80
CCCON(Cc1ccc(-c2noc(C(F)(F)F)n2)cc1)C(=O)C=CC(C)=O [Compound 1.310, 4-oxo-N-propoxy-N-[[4-[5-(trifluoromethyl)-1,2,4-oxadiazol-3-yl]phenyl]methyl]-pent-2-enamide] | ≥ 80
CCC(C)N(Cc1ccc(-c2noc(C(F)(F)F)n2)cc1)C(=O)C1CCC1 (stereo not drawn) [Compound 1.381, N-sec-butyl-N-[[4-[5-(trifluoromethyl)-1,2,4-oxadiazol-3-yl]phenyl]methyl]-cyclobutane-carboxamide] | ≥ 80
C=C(C)C(=O)N(Cc1ccc(-c2noc(C(F)(F)F)n2)cc1)OCCC [Compound 1.304, 2-methyl-N-propoxy-N-[[4-[5-(trifluoromethyl)-1,2,4-oxadiazol-3-yl]phenyl]methyl]-prop-2-enamide] | ≥ 80
C#CCN(Cc1ccc(-c2noc(C(F)(F)F)n2)cc1)C(=O)Cc1ccccc1OC [Compound 1.179, 2-(2-methoxyphenyl)-N-prop-2-ynyl-N-[[4-[5-(trifluoromethyl)-1,2,4-oxadiazol-3-yl]phenyl]methyl]-acetamide] | ≥ 80
CCCON(Cc1ccc(-c2noc(C(F)(F)F)n2)cc1)C(=O)CCOC [Compound 1.293, 3-methoxy-N-propoxy-N-[[4-[5-(trifluoromethyl)-1,2,4-oxadiazol-3-yl]phenyl]methyl]-propanamide] | ≥ 80
CON(C(=O)C1CC1C)C(C)c1ccc(-c2noc(C(F)(F)F)n2)cc1 (stereo not drawn) [Compound 1.265, N-methoxy-2-methyl-N-[1-[4-[5-(trifluoromethyl)-1,2,4-oxadiazol-3-yl]phenyl]ethyl]-cyclopropane-carboxamide] | ≥ 80
COCC(=O)N(Cc1ccc(-c2noc(C(F)(F)F)n2)cc1)OCc1ccc(Cl)cc1 [Compound 1.551, N-[(4-chlorophenyl)-methoxy]-2-methoxy-N-[[4-[5-(trifluoromethyl)-1,2,4-oxadiazol-3-yl]phenyl]methyl]-acetamide] | ≥ 80
C#CCN(Cc1ccc(-c2noc(C(F)(F)F)n2)cc1)C(=O)C1(C)CC1(Cl)Cl (stereo not drawn) [Compound 1.174, 2,2-dichloro-1-methyl-N-prop-2-ynyl-N-[[4-[5-(trifluoromethyl)-1,2,4-oxadiazol-3-yl]phenyl]methyl]-cyclopropane-carboxamide] | ≥ 80
CCCON(Cc1ccc(-c2noc(C(F)(F)F)n2)cc1)C(=O)C(CC)COC (stereo not drawn) [Compound 1.311, 2-(methoxymethyl)-N-propoxy-N-[[4-[5-(trifluoromethyl)-1,2,4-oxadiazol-3-yl]phenyl]methyl]-butanamide] | ≥ 80
CON(C(=O)c1ccoc1)C(C)c1ccc(-c2noc(C(F)(F)F)n2)cc1 (stereo not drawn) [Compound 1.278, N-methoxy-N-[1-[4-[5-(trifluoromethyl)-1,2,4-oxadiazol-3-yl]phenyl]ethyl]furan-3-carboxamide] | ≥ 80
C#CCC(NS(=O)(=O)CC)C(=O)N(Cc1ccc(-c2noc(C(F)(F)F)n2)cc1)CC1CC1 (stereo not drawn) [Compound 1.239, N-(cyclopropylmethyl)-2-(ethylsulfonylamino)-N-[[4-[5-(trifluoromethyl)-1,2,4-oxadiazol-3-yl]phenyl]methyl]-pent-4-ynamide] | ≥ 80
CON(Cc1ccc(-c2noc(C(F)(F)F)n2)cc1)C(=O)OCC(C)C [Compound 2.8, isobutyl N-methoxy-N-[[4-[5-(trifluoromethyl)-1,2,4-oxadiazol-3-yl]phenyl]methyl]-carbamate] | ≥ 80
CCCON(Cc1ccc(-c2noc(C(F)(F)F)n2)cc1)C(=O)C1CCC1 [Compound 1.295, N-propoxy-N-[[4-[5-(trifluoromethyl)-1,2,4-oxadiazol-3-yl]phenyl]methyl]-cyclobutane-carboxamide] | ≥ 80
CON(Cc1ccc(-c2noc(C(F)(F)F)n2)cc1)C(=O)c1ccc(Cl)cc1Cl [Compound 1.9, 2,4-dichloro-N-methoxy-N-[[4-[5-(trifluoromethyl)-1,2,4-oxadiazol-3-yl]phenyl]methyl]-benzamide] | ≥ 80

tested on: Puccinia recondita f. Sp. Tritici; assay: Fungicidal activity against Puccinia recondita f. sp. tritici / wheat / leaf disc preventative (brown rust); format: in vivo; conditions: foliar, 200 ppm in the applied formulation, wheat leaf segments, preventative, compared to untreated control leaf disks, read-out: disease control
Experimental: Leaf disks or leaf segments of various plant species are cut from plants grown in a greenhouse. The cut leaf disks or segments are placed in multiwell plates (24-well format) onto water agar. The leaf disks are sprayed with a test solution before (preventative) or after (curative) inoculation. Compounds to be tested are prepared as DMSO solutions (max. 10 mg/ml) which are diluted to the appropriate concentration with 0.025% Tween20 just before spraying. The inoculated leaf disks or segments are incubated under defined conditions (temperature, relative humidity, light, etc.) according to the respective test system. A single evaluation of disease level is carried out 3 to 14 days after inoculation, depending on the pathosystem. Percent disease control relative to the untreated check leaf disks or segments is then calculated.
Fungicidal Activity Against Puccinia recondita f. Sp. Tritici/Wheat/Leaf Disc Preventative (Brown Rust)
Wheat leaf segments cv. Kanzler were placed on agar in multiwell plates (24-well format) and sprayed with the formulated test compound diluted in water. The leaf disks were inoculated with a spore suspension of the fungus 1 day after application. The inoculated leaf segments were incubated at 19° C. and 75% relative humidity (rh) under a light regime of 12 hours light/12 hours darkness in a climate cabinet and the activity of a compound was assessed as percent disease control compared to untreated when an appropriate level of disease damage appears in untreated check leaf segments (7 to 9 days after application).
The following compounds at 200 ppm in the applied formulation give at least 80% disease control in this test when compared to untreated control leaf disks under the same conditions, which show extensive disease development.

Compound | pest or weed control at 200 ppm [%]
C#CCOC(=O)NC(C(=O)N(CC#C)Cc1ccc(-c2noc(C(F)(F)F)n2)cc1)C(C)C (stereo not drawn) [Compound 1.198, prop-2-ynyl N-[2-methyl-1-[prop-2-ynyl-[[4-[5-(trifluoromethyl)-1,2,4-oxadiazol-3-yl]phenyl]methyl]-carbamoyl]propyl]-carbamate] | ≥ 80
C#CCOC(C(=O)N(Cc1ccc(-c2noc(C(F)(F)F)n2)cc1)C1CC1)c1ccc(Cl)cc1 (stereo not drawn) [Compound 1.141, 2-(4-chlorophenyl)-N-cyclopropyl-2-prop-2-ynoxy-N-[[4-[5-(trifluoromethyl)-1,2,4-oxadiazol-3-yl]phenyl]methyl]-acetamide] | ≥ 80
